These are literature values, as cited in US20100234277A1, “COADMINISTRATION OF ALPHA-FETOPROTEIN AND A DISEASE MODIFYING ANTI-RHEUMATIC DRUG FOR TREATING INFLAMMATORY ARTHRITIC DISEASE” (priority 2006, published 2010).

Molecules are shown by their SMILES.

For this series the following is noted: in vivo.

As for `CN(Cc1cnc2nc(N)nc(N)c2n1)c1ccc(C(=O)N[C@@H](CCC(=O)O)C(=O)O)cc1` [methotrexate, N-[4-[[(2,4-diamino-6-pteridinyl)methyl]methylamino]benzoyl]-L-glutamic acid], the “individuals with rheumatoid arthritis (RA) that respond favorably to treatment” value was “Approximately 70%”.
